Experiments:
[1] = target: human plasma kallikrein (Homo sapiens (Human), UniProt P03952); experiment: In vitro enzyme inhibition of human plasma kallikrein (PFR-AMC cleavage); format: biochemical; conditions: Pro-Phe-Arg-AMC substrate, 37° C., read-out: hPK IC50
Procedure, shortened: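 Human plasma kallikrein and compound, diluted in 50 mM Tris-HCl pH 7.5, 150 mM NaCl, 0.01% Triton X-100, preincubated 5 min at 37 °C before PFR-AMC was added.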

[2] = target: cellular kallikrein activity (Homo sapiens (Human), UniProt P03952); experiment: In vitro cellular assay (contact assay): kallikrein activity in ellagic acid-activated human plasma, Z-FR-2-AMC substrate; format: biochemical; conditions: human plasma activated with ellagic acid, 37° C.
cellular kallikrein activity, sequence (P03952 391-638): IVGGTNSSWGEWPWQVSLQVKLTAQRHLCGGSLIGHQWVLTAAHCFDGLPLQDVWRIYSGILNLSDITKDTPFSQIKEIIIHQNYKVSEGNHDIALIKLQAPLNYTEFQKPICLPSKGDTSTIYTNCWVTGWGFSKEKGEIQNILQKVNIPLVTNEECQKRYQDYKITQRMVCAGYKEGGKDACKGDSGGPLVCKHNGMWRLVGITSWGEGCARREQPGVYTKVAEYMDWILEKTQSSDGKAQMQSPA
cellular kallikrein activity, sequence (P03952 20-390 partner): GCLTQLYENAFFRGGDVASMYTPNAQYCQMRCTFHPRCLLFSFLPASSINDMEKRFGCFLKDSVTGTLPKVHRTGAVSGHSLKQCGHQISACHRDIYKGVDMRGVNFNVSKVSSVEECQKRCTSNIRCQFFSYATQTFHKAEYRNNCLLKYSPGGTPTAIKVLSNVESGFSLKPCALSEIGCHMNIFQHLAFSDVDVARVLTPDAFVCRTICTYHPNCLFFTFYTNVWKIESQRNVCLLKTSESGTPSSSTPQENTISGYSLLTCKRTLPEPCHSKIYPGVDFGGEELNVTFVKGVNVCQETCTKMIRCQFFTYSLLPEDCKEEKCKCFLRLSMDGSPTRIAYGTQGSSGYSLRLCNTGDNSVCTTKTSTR
Protocol: The ability of the compounds disclosed herein to inhibit cellular kallikrein activity was quantified and the respective EC50 value was determined.
All dilutions were prepared in an assay buffer comprising 50 mM Tris-HCl pH 7.2, 150 mM NaCl, and 0.01% Triton X-100.
The ten solutions of the test compounds, prepared by serial dilution, were further diluted 50-fold in the assay buffer.
Human plasma is thawed on ice and centrifuged for 15 min at 4° C. to remove platelets. A 1 mM stock solution of ellagic acid is diluted to 8 μM and mixed with human plasma, after removing platelets, at a ratio of 1:0.8.
A 22.5 μL volume of the final mixture of human plasma and ellagic acid was added to a 96-well microwell plate and the plate was incubated for 15 min at 37° C.
The CINH inhibitor at various concentrations, prepared by serial dilutions as described above, were added to the inhibitor control wells. […] Each CINH concentration is tested in duplicates.
The test compounds at various concentrations, also prepared by serial dilutions as described above, are added to the test wells. […] Each test compound concentration was tested in duplicates.
In addition to the inhibitor control and test wells, the 96 well assay plate includes positive control wells which contained the mixture of human plasma and ellagic acid without C1NH inhibitor or test compounds, and background wells which contained neither the mixture of human plasma and ellagic acid nor the test compounds. The total volume of liquid in positive control and background wells was brought up to 35 μL, using the assay buffer.
The assay plate containing C1NH inhibitors and test compounds mixed with human plasma and ellagic acid and appropriate controls was incubated at 37° C. for 5 min. […] The reagents were mixed well by shaking the plate gently for 30 sec.
The enzyme reaction was quantified by immediate kinetic reading of the assay plate using excitation/emission wavelengths of 330 nm/440 nm respectively. Fluorescence intensity was recorded for 60 min, using a time interval of 43 sec.
The inhibition activity of the test compounds were evaluated using the EC50 values, calculated according to the dose-response curve of the test compounds, fitted using the “log(inhibitor)−response (variable slope)” equation in GraphPadPrism software (GraphPad Software, Inc.).
The percentage inhibition was calculated using the following equation:
[formula] where, Mean (BG) is the average value of the fluorescence intensity of the background wells and Mean (PC) is the average value of the fluorescence intensity of the positive control wells.
Table 4 provides the EC50 values of various compounds disclosed herein.

human plasma kallikrein, sequence (P03952 391-638): as the sequence (P03952 391-638) above
human plasma kallikrein, sequence (P03952 20-390 partner): as the sequence (P03952 20-390 partner) above

Nc1nccc2c(F)c(CNC(=O)c3ccnc(Cc4ccc5ncc(Cl)cc5c4)c3)ccc12 [Example 178, N-((1-amino-5-fluoroisoquinolin-6-yl)methyl)-2-((3-chloroquinolin-6-yl)methyl)isonicotinamide]
IC50 [1]: < 100 nM
EC50 [2]: < 100 nM

O=C(NCc1cnc2[nH]cc(Cl)c2c1)c1ccnc(Cc2ccc3ncc(C(F)(F)F)cc3c2)c1 [Example 231, N-((3-chloro-1H-pyrrolo[2,3-b]pyridin-5-yl)methyl)-2-((3-(trifluoromethyl)quinolin-6-yl)methyl)isonicotinamide]
IC50 [1]: < 100 nM
EC50 [2]: 100 to 1000 nM

Cc1nc2c(c(C)c1CNC(=O)c1ccnc(Cc3ccc4ncc(C(F)(F)F)cc4c3)c1)CCN2 [Example 176, N-((4,6-dimethyl-2,3-dihydro-1H-pyrrolo[2,3-b]pyridin-5-yl)methyl)-2-((3-(trifluoromethyl)quinolin-6-yl)methyl)isonicotinamide]
IC50 [1]: < 100 nM
EC50 [2]: 100 to 1000 nM

Cc1nc(N)ccc1CNC(=O)c1ccnc(Cc2cc(C(C)(C)O)c3ncc(Cl)cc3c2)c1 [Example 220, N-((6-amino-2-methylpyridin-3-yl)methyl)-2-((3-chloro-8-(2-hydroxypropan-2-yl)quinolin-6-yl)methyl)isonicotinamide]
IC50 [1]: < 100 nM
EC50 [2]: < 100 nM

CCc1cnc2ccc(Cc3cc(C(=O)NCc4c(C)cc(N)nc4C)ccn3)cc2c1 [Example 286, N-((6-amino-2,4-dimethylpyridin-3-yl)methyl)-2-((3-ethylquinolin-6-yl)methyl)isonicotinamide]
IC50 [1]: < 100 nM
EC50 [2]: < 100 nM

O=C(NCc1ccc2[nH]cc(Cl)c2c1F)c1ccnc(Cc2ccc3ncc(C4CC4)cc3c2)c1 [Example 248, N-((3-chloro-4-fluoro-1H-indol-5-yl)methyl)-2-((3-cyclopropylquinolin-6-yl)methyl)isonicotinamide]
IC50 [1]: < 100 nM
EC50 [2]: 100 to 1000 nM

Nc1nc(C(F)(F)F)n2cc(CNC(=O)c3ccnc(Cc4ccc5ncc(Cl)cc5c4)c3)ccc12 [Example 186, N-((1-amino-3-(trifluoromethyl)imidazo[1,5-a]pyridin-6-yl)methyl)-2-((3-chloroquinolin-6-yl)methyl)isonicotinamide]
IC50 [1]: < 100 nM
EC50 [2]: < 100 nM

Cc1cc(N)nc(C)c1CNC(=O)c1cc(CN)nc(Cc2ccc3ncc(Cl)cc3c2)c1 [Example 211, N-((6-amino-2,4-dimethylpyridin-3-yl)methyl)-2-(aminomethyl)-6-((3-chloroquinolin-6-yl)methyl)isonicotinamide]
IC50 [1]: < 100 nM
EC50 [2]: < 100 nM

Cc1c(CNC(=O)c2ccnc(Cc3ccc4ncc(Cl)cc4c3)c2)ccc2c(N)nccc12 [Example 177, N-((1-amino-5-methylisoquinolin-6-yl)methyl)-2-((3-chloroquinolin-6-yl)methyl)isonicotinamide]
IC50 [1]: < 100 nM
EC50 [2]: < 100 nM

Nc1nccc2cc(CNC(=O)c3ccnc(Cc4ccc5ncc(C(F)(F)F)cc5c4)c3)c(F)cc12 [Example 182, N-((1-amino-7-fluoroisoquinolin-6-yl)methyl)-2-((3-(trifluoromethyl)quinolin-6-yl)methyl)isonicotinamide]
IC50 [1]: < 100 nM
EC50 [2]: 100 to 1000 nM

CC(C)(O)c1cc(Cc2cc(C(=O)NCc3n[nH]c4ccc(Cl)cc34)ccn2)cc2cc(Cl)cnc12 [Example 225, N-((5-chloro-1H-indazol-3-yl)methyl)-2-((3-chloro-8-(2-hydroxypropan-2-yl)quinolin-6-yl)methyl)isonicotinamide]
IC50 [1]: < 100 nM
EC50 [2]: 100 to 1000 nM

Cc1cc(N)nc(C)c1CNC(=O)c1ccnc(Cc2cc(N)c3ncc(Cl)cc3c2)c1 [Example 217, N-((6-amino-2,4-dimethylpyridin-3-yl)methyl)-2-((8-amino-3-chloroquinolin-6-yl)methyl)isonicotinamide]
IC50 [1]: < 100 nM
EC50 [2]: < 100 nM

Cc1cc(N)nc(C)c1CNC(=O)c1cc(Cc2ccc3ncc(Cl)cc3c2)nc(C(N)=O)c1 [Example 208, N^4-((6-amino-2,4-dimethylpyridin-3-yl)methyl)-6-((3-chloroquinolin-6-yl)methyl)pyridine-2,4-dicarboxamide]
IC50 [1]: < 100 nM
EC50 [2]: < 100 nM

Cc1cc2c(N)nccc2cc1CNC(=O)c1ccnc(Cc2ccc3ncc(Cl)cc3c2)c1 [Example 181, N-((1-amino-7-methylisoquinolin-6-yl)methyl)-2-((3-chloroquinolin-6-yl)methyl)isonicotinamide]
IC50 [1]: < 100 nM
EC50 [2]: < 100 nM

Cc1cc(N)nc(C)c1CNC(=O)c1ccnc(Cc2cc(S(N)(=O)=O)c3ncc(Cl)cc3c2)c1 [Example 235, N-((6-amino-2,4-dimethylpyridin-3-yl)methyl)-2-((3-chloro-8-sulfamoylquinolin-6-yl)methyl)isonicotinamide]
IC50 [1]: < 100 nM
EC50 [2]: < 100 nM

Cc1cc(N)nc(C)c1CNC(=O)c1ccnc(Cc2cc(C(C)(C)O)c3ncc(Cl)cc3c2)c1 [Example 219, N-((6-amino-2,4-dimethylpyridin-3-yl)methyl)-2-((3-chloro-8-(2-hydroxypropan-2-yl)quinolin-6-yl)methyl)isonicotinamide]
IC50 [1]: < 100 nM
EC50 [2]: < 100 nM

Cc1cc(N)nc(C)c1CNC(=O)c1cc(CC#N)nc(Cc2ccc3ncc(Cl)cc3c2)c1 [Example 213, N-((6-amino-2,4-dimethylpyridin-3-yl)methyl)-2-((3-chloroquinolin-6-yl)methyl)-6-(cyanomethyl)isonicotinamide]
IC50 [1]: < 100 nM
EC50 [2]: < 100 nM

CC(C)(O)c1cc(Cc2cc(C(=O)NCc3ccc4[nH]cc(Cl)c4c3F)ccn2)cc2cc(Cl)cnc12 [Example 222, N-((3-chloro-4-fluoro-1H-indol-5-yl)methyl)-2-((3-chloro-8-(2-hydroxypropan-2-yl)quinolin-6-yl)methyl)isonicotinamide]
IC50 [1]: < 100 nM
EC50 [2]: 100 to 1000 nM

Cc1cc(N)nc(C)c1CNC(=O)c1ccnc(Cc2cc3cc(Cl)cnc3cn2)c1 [Example 148, N-((6-amino-2,4-dimethylpyridin-3-yl)methyl)-2-((3-chloro-1,7-naphthyridin-6-yl)methyl)isonicotinamide]
IC50 [1]: < 100 nM
EC50 [2]: < 100 nM

O=C(NCc1cc2c(Cl)c[nH]c2cc1F)c1ccnc(Cc2ccc3ncc(C4CC4)cc3c2)c1 [Example 245, N-((3-chloro-6-fluoro-1H-indol-5-yl)methyl)-2-((3-cyclopropylquinolin-6-yl)methyl)isonicotinamide]
IC50 [1]: < 100 nM
EC50 [2]: 100 to 1000 nM

O=C(NCc1n[nH]c2ccc(Cl)cc12)c1ccnc(Cc2ccc3ncc(C4CC4)cc3c2)c1 [Example 249, N-((5-chloro-1H-indazol-3-yl)methyl)-2-((3-cyclopropylquinolin-6-yl)methyl)isonicotinamide]
IC50 [1]: < 100 nM
EC50 [2]: 100 to 1000 nM

Cc1cc(N)nc(C)c1CNC(=O)c1ccnc(C(N)c2ccc3ncc(Cl)cc3c2)c1 (stereo not shown) [Example 276, 2-[Amino-(3-chloro-quinolin-6-yl)-methyl]-N-(6-amino-2,4-dimethyl-pyridin-3-ylmethyl)-isonicotinamide]
IC50 [1]: < 100 nM
EC50 [2]: 100 to 1000 nM

Nc1nccc2cc(CNC(=O)c3ccnc(Cc4ccc5ncc(C(F)(F)F)cc5c4)c3)ccc12 [Example 232, N-((1-aminoisoquinolin-6-yl)methyl)-2-((3-(trifluoromethyl)quinolin-6-yl)methyl)isonicotinamide]
IC50 [1]: < 100 nM
EC50 [2]: < 100 nM

Cc1cc(N)nc(C)c1CNC(=O)c1cc(CO)nc(Cc2ccc3ncc(Cl)cc3c2)c1 [Example 212, N-((6-amino-2,4-dimethylpyridin-3-yl)methyl)-2-((3-chloroquinolin-6-yl)methyl)-6-(hydroxymethyl)isonicotinamide]
IC50 [1]: < 100 nM
EC50 [2]: < 100 nM

O=C(NCc1cnc2[nH]cc(Cl)c2c1)c1ccnc(Cc2ccc3ncc(C4CC4)cc3c2)c1 [Example 246, N-((3-chloro-1H-pyrrolo[2,3-b]pyridin-5-yl)methyl)-2-((3-cyclopropylquinolin-6-yl)methyl)isonicotinamide]
IC50 [1]: < 100 nM
EC50 [2]: 100 to 1000 nM

Cc1nc(N)ccc1CNC(=O)c1ccnc(Cc2cc(CN)c3ncc(Cl)cc3c2)c1 [Example 253, N-((6-amino-2-methylpyridin-3-yl)methyl)-2-((8-(aminomethyl)-3-chloroquinolin-6-yl)methyl)isonicotinamide]
IC50 [1]: < 100 nM
EC50 [2]: < 100 nM

— patent US10023557B2 (LifeSci Pharmaceuticals, Inc., priority 2015, dated 2018)
